For 13 molecules, IC50 results are on record in BindingDB's records for doi:10.1021/jm2004442 (Amgen, 2011).

Molecules are shown by their SMILES.

Chain of RAC-alpha serine/threonine-protein kinase (P31749 whole entry): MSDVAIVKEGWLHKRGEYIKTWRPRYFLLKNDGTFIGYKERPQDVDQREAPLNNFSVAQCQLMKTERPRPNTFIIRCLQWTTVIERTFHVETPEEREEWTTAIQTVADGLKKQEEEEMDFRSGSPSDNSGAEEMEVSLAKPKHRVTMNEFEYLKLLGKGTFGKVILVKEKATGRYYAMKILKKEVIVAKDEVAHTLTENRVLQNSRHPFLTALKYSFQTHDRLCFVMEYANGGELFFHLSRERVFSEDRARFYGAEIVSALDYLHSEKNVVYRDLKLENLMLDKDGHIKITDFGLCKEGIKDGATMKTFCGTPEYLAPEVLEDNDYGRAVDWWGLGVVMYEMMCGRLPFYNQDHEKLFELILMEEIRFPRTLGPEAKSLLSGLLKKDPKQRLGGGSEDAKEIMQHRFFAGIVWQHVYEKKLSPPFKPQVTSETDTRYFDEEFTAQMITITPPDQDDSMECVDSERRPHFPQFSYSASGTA

This experiment has as its target RAC-alpha serine/threonine-protein kinase (Homo sapiens, UniProt P31749). The experiment in a line: Inhibition of PI3K-mediated Akt phosphorylation at Ser 473 in human U87MG cells after 2 hrs by alphascreen assay.
Molecule `CC(=O)Nc1cn2nc(-c3cnc(Cl)c(NS(=O)(=O)c4ccc(F)cc4)c3)ccc2n1` came in with an IC50 of 13 nM.

Regarding `Nc1cn2nc(-c3cnc(Cl)c(NS(=O)(=O)c4ccc(F)cc4)c3)ccc2n1`, the IC50 turned out to be 415 nM.

Turning to `CC(=O)Nc1cn2cc(-c3cnc(Cl)c(NS(=O)(=O)c4ccc(F)cc4)c3)ccc2n1`, the IC50 was found to be 118 nM.

For the molecule `Nc1cn2cc(-c3cnc(Cl)c(NS(=O)(=O)c4ccc(F)cc4)c3)ccc2n1`, the IC50 is over 12000 nM.

Turning to `O=S(=O)(Nc1cc(-c2ccc3nccn3c2)cnc1Cl)c1ccc(F)cc1`, the IC50 is 574 nM.

In turn, `CC(=O)Nc1nc2ccc(-c3cnc(Cl)c(NS(=O)(=O)c4ccc(F)cc4)c3)cc2[nH]1` yielded an IC50 of 335 nM.

In turn, `Nc1nc2ccc(-c3cnc(Cl)c(NS(=O)(=O)c4ccc(F)cc4)c3)cc2[nH]1` registered an IC50 of over 12000 nM.

As to `O=S(=O)(Nc1cc(-c2ccc3nc[nH]c3c2)cnc1Cl)c1ccc(F)cc1`, the IC50 was over 12000 nM.

With `CC(=O)Nc1nc2ccc(-c3cnc(Cl)c(NS(=O)(=O)c4ccc(F)cc4)c3)cc2o1`, the midpoint of inhibition, the IC50, lay at 1100 nM.

The molecule `Nc1nc2ccc(-c3cnc(Cl)c(NS(=O)(=O)c4ccc(F)cc4)c3)cc2o1` came in with an IC50 of 101 nM.

With `O=S(=O)(Nc1cc(-c2ccc3ncoc3c2)cnc1Cl)c1ccc(F)cc1`, the IC50 was over 12000 nM.

`O=S(=O)(Nc1cc(-c2ccc3nncn3c2)cnc1Cl)c1ccc(F)cc1`: the IC50 is over 12000 nM.

In turn, `O=S(=O)(Nc1cc(-c2ccc3sncc3c2)cnc1Cl)c1ccc(F)cc1` gave an IC50 of over 12000 nM.

What is called IC50 is the concentration at which inhibition is half-maximal. A high value points to weaker potency.
